Values quoted from earlier work, collected in US9289440B2, “Intravenous formulation with water-soluble cocrystals of acetylsalicylic acid and theanine” (THEAPRIN PHARMACEUTICALS INC., priority 2009, dated 2016).
“Also recorded” adds a separate entry of the source.

Conditions: FDA Reports 2006-2008, single patient reports

In the case of CC(=O)Oc1ccccc1C(=O)O [Aspegic, lysine acetylsalicylate], the “side effect after drug was administered” value is listed as “cardio-respiratory arrest and ventricular fibrillation and died; also recorded: angina pectoris and recovered”.
